Data taken from the supplement of paper PMC11061612.

Key:
[1] = compound: Cc1cc2ncnn2cc1Nc1ncc2c(n1)n(C1CCOCC1)c(=O)n2C [AZD7648]; settings: max 10 µM
Summary of the method: (§1)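 Following 24 hours at 37°C and 5% CO2, cancer cell lines in 1536-well plates with 7.5 μl DMEM/F12 or RPMI and 10% FBS were dosed for 72 hours, final DMSO typically being 0.2%. CellTiter-Glo 2.0 luminescence, scaled between blank-well and DMSO-well means, gave the viability readout. Dose responses were fitted to a two-parameter logistic curve with a non-linear mixed effects model, and the single-agent IC50 was derived from this fit.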

[2] = compound: C1CN(CCC1(C(=O)N[C@@H](CCO)C2=CC=C(C=C2)Cl)N)C3=NC=NC4=C3C=CN4 [AZD5363]; settings: max 10 µM
Summary of the method: as §1

[3] = compound: CCN(CCO)CCCOc1ccc2c(Nc3cc(CC(=O)Nc4cccc(F)c4)[nH]n3)ncnc2c1 [AZD2811]; settings: max 1 µM
Summary of the method: as §1

[4] = compound: C[C@@H](Nc1cc(F)cc(F)c1)c1cc(C(=O)N(C)C)cc2c(=O)cc(N3CCOCC3)oc12 [AZD8186]; settings: max 10 µM
Summary of the method: as §1

[5] = compound: N#Cc1cnc(Nc2cc(NC[C@H]3CNCCO3)c(C(F)(F)F)cn2)cn1 [SRA737]; settings: max 10 µM
Summary of the method: as §1

[6] = compound: CN(C)CCCOc1ccc(-c2ccc3ncc4c(c3c2)n(C2CCOCC2)c(=O)n4C)cn1 [AZD0156]; settings: max 3 µM
Summary of the method: as §1

[7] = compound: COc1nnc2ccc(N3CCC(c4ccc(OCCN5CCN(C)C(=O)[C@H]5C)cc4)CC3)nn12 [AZD5153]; settings: max 1 µM
Summary of the method: as §1

[8] = compound: CN(CC[C@H](CSC1=CC=CC=C1)NC2=C(C=C(C=C2)S(=O)(=O)NC(=O)C3=CC=C(C=C3)N4CCC(CC4)[C@H](C5=CC=CC=C5C6=CC=C(C=C6)Cl)O)S(=O)(=O)C(F)(F)F)CCO [AZD4320]; settings: max 1 µM
Summary of the method: as §1

[9] = compound: COc1cc([C@@H]2c3cc4c(cc3[C@@H](O[C@@H]3O[C@@H]5CO[C@@H](C)O[C@H]5[C@H](O)[C@H]3O)[C@H]3COC(=O)[C@H]23)OCO4)cc(OC)c1O [Etoposide]; settings: max 10 µM
Summary of the method: as §1

[10] = compound: COc1cc2ncnc(Nc3ccc(F)c(Cl)c3)c2cc1OCCCN1CCOCC1 [Gefitinib]; settings: max 10 µM
Summary of the method: as §1

[11] = compound: O=c1[nH]cc(F)c(=O)[nH]1 [5-Fluorouracil]; settings: max 20 µM
Summary of the method: as §1

[12] = compound: COc1cccc(OCCCN)c1-c1cc(Nc2cnc(C#N)cn2)n[nH]1 [Prexasertib]; settings: max 1 µM
Summary of the method: as §1

[13] = compound: O=C(c1cc(Cc2n[nH]c(=O)c3ccccc23)ccc1F)N1CCN(C(=O)C2CC2)CC1 [Olaparib]; settings: max 10 µM
Summary of the method: as §1

[14] = compound: CCc1c2c(nc3ccc(O)cc13)-c1cc3c(c(=O)n1C2)COC(=O)[C@]3(O)CC [SN-38]; settings: max 0.3 µM
Summary of the method: as §1

[15] = compound: CC(=O)Nc1cccc(-n2c(=O)n(C3CC3)c(=O)c3c(Nc4ccc(I)cc4F)n(C)c(=O)c(C)c32)c1 [Trametinib]; settings: max 1 µM
Summary of the method: as §1

[16] = compound: Nc1ccn([C@@H]2O[C@H](CO)[C@@H](O)C2(F)F)c(=O)n1 [Gemcitabine]; settings: max 0.3 µM
Summary of the method: as §1

[17] = compound: Cc1nc(-c2cn3c(n2)-c2ccc(-c4cnn(C(C)(C)C(N)=O)c4)cc2OCC3)n(C(C)C)n1 [Taselisib]; settings: max 10 µM
Summary of the method: as §1

[18] = compound: C[C@@H](c1ccc2nccn2c1)n1nnc2ncc(-c3cnn(C)c3)nc21 [Savolitinib]; settings: max 1 µM
Summary of the method: as §1

[19] = compound: Cc1c2c(nn1C)CSCc1cc(n(C)n1)CSc1cc(c3ccccc3c1)OCCCc1c(C(=O)O)n(C)c3c-2c(Cl)ccc13 [AZD5991]; settings: max 1 µM
Summary of the method: as §1

[20] = compound: CS(=O)(=O)CCNCc1ccc(-c2ccc3ncnc(Nc4ccc(OCc5cccc(F)c5)c(Cl)c4)c3c2)o1 [Lapatinib]; settings: max 10 µM
Summary of the method: as §1

[21] = compound: CC(=O)c1c(C)c2cnc(Nc3ccc(N4CCNCC4)cn3)nc2n(C2CCCC2)c1=O [Palbociclib]; settings: max 10 µM
Summary of the method: as §1

[22] = compound: NC1(c2ccc(-c3nc4ccn5c(=O)[nH]nc5c4cc3-c3ccccc3)cc2)CCC1 [MK-2206]; settings: max 10 µM
Summary of the method: as §1

[23] = compound: CC(=O)O[C@H]1C(=O)[C@@]2(C)[C@H]([C@H](OC(=O)c3ccccc3)[C@]3(O)C[C@H](OC(=O)[C@H](O)[C@@H](NC(=O)c4ccccc4)c4ccccc4)C(C)=C1C3(C)C)[C@]1(OC(C)=O)CO[C@@H]1C[C@@H]2O [Paclitaxel]; settings: max 3 µM
Summary of the method: as §1

[24] = compound: C[C@@H]1COCCN1C2=NC(=NC(=C2)C3(CC3)[S@](=N)(=O)C)C4=C5C=CNC5=NC=C4 [AZD6738]; settings: max 10 µM
Summary of the method: as §1

[25] = compound: CC1=C(C(=CC=C1)Cl)NC(=O)C2=CN=C(S2)NC3=CC(=NC(=N3)C)N4CCN(CC4)CCO [Dasatinib]; settings: max 2 µM
Summary of the method: as §1

[26] = compound: CC1(C)CCC(CN2CCN(c3ccc(C(=O)NS(=O)(=O)c4ccc(NCC5CCOCC5)c([N+](=O)[O-])c4)c(Oc4cnc5[nH]ccc5c4)c3)CC2)=C(c2ccc(Cl)cc2)C1 [Venetoclax]; settings: max 1 µM
Summary of the method: as §1

[27] = compound: O=C(Nc1ccc2[nH]nc(-c3ccncc3)c2c1)[C@@H]1CCN(CC(=O)N2CCN(c3ccc(-c4ncccn4)cc3)CC2)C1; settings: max 5 µM
Summary of the method: as §1

[28] = compound: COc1cccc2c1C(=O)c1c(O)c3c(c(O)c1C2=O)C[C@@](O)(C(=O)CO)C[C@@H]3O[C@H]1C[C@H](N)[C@H](O)[C@H](C)O1 [Doxorubicin]; settings: max 1 µM
Summary of the method: as §1

[29] = compound: C[C@@H](Oc1cc(-c2cnn(C3CCNCC3)c2)cnc1N)c1c(Cl)ccc(F)c1Cl [Crizotinib]; settings: max 10 µM
Summary of the method: as §1

[30] = compound: CC(C)n1c(=O)n(C)c2cnc3cc(F)c(-c4ccc(OCCCN5CCCCC5)nc4)cc3c21 [AZD1390]; settings: max 0.3 µM
Summary of the method: as §1

[31] = compound: C=CCn1c(=O)c2cnc(Nc3ccc(N4CCN(C)CC4)cc3)nc2n1-c1cccc(C(C)(C)O)n1 [AZD1775]; settings: max 3 µM
Summary of the method: as §1

[32] = compound: Cn1cnc2c(F)c(Nc3ccc(Br)cc3Cl)c(C(=O)NOCCO)cc21 [Selumetinib]; settings: max 10 µM
Summary of the method: as §1

[33] = compound: CC1=CN2[C@@H](C1)C=NC3=CC(=C(C=C3C2=O)OC)OCCCCCOC4=C(C=C5C(=C4)N=C[C@@H]6CC(=CN6C5=O)C)OC [SG3199]; settings: max 0.001 µM
Summary of the method: as §1

[34] = compound: C1CC(C1)(C(=O)[O-])C(=O)[O-].N.N.[Pt+2] [Carboplatin]; settings: max 10 µM
Summary of the method: as §1

[35] = compound: COc1cc(Nc2ncc3c(n2)-c2ccc(Cl)cc2C(c2c(F)cccc2OC)=NC3)ccc1C(=O)O [Alisertib]; settings: max 10 µM
Summary of the method: as §1

Row | Cell Line | IC50, cell viability 72 h [1] | IC50, cell viability 72 h [2] | IC50, cell viability 72 h [3] | IC50, cell viability 72 h [4] | IC50, cell viability 72 h [5] | IC50, cell viability 72 h [6] | IC50, cell viability 72 h [7] | IC50, cell viability 72 h [8] | IC50, cell viability 72 h [9] | IC50, cell viability 72 h [10] | IC50, cell viability 72 h [11] | IC50, cell viability 72 h [12] | IC50, cell viability 72 h [13] | IC50, cell viability 72 h [14] | IC50, cell viability 72 h [15] | IC50, cell viability 72 h [16] | IC50, cell viability 72 h [17] | IC50, cell viability 72 h [18] | IC50, cell viability 72 h [19] | IC50, cell viability 72 h [20] | IC50, cell viability 72 h [21] | IC50, cell viability 72 h [22] | IC50, cell viability 72 h [23] | IC50, cell viability 72 h [24] | IC50, cell viability 72 h [25] | IC50, cell viability 72 h [26] | IC50, cell viability 72 h [27] | IC50, cell viability 72 h [28] | IC50, cell viability 72 h [29] | IC50, cell viability 72 h [30] | IC50, cell viability 72 h [31] | IC50, cell viability 72 h [32] | IC50, cell viability 72 h [33] | IC50, cell viability 72 h [34] | IC50, cell viability 72 h [35]
1 | NB69 (Neuroblastoma) | > 10 µM | > 10 µM | 0.47 µM | 7.65 µM | > 10 µM | > 3 µM | 0.0377 µM | 0.226 µM | 0.166 µM | > 10 µM | 8.72 µM | 0.0899 µM | > 10 µM | 0.00216 µM | 0.00307 µM | 0.016 µM | 0.487 µM | > 1 µM | 0.201 µM | 9.9 µM | 0.491 µM | > 10 µM | 0.015 µM | 3.13 µM | 0.141 µM | > 1 µM | 0.0272 µM | 0.0772 µM | 2.54 µM | > 0.3 µM | 0.444 µM | 0.232 µM | > 0.001 µM | > 10 µM | 0.238 µM
2 | NCI-H358 (Lung Adenocarcinoma) | > 10 µM | > 10 µM | > 1 µM | > 10 µM | > 10 µM | > 3 µM | > 1 µM | > 1 µM | > 10 µM | > 10 µM | > 20 µM | 0.0466 µM | > 10 µM | > 0.3 µM | 0.147 µM | > 0.3 µM | 3.47 µM | > 1 µM | > 1 µM | > 10 µM | > 10 µM | > 10 µM | 0.0281 µM | > 10 µM | > 2 µM | > 1 µM | > 5 µM | > 1 µM | > 10 µM | > 0.3 µM | > 3 µM | > 10 µM | > 0.001 µM | > 10 µM | > 10 µM
3 | NCI-H727 (Other Solid Carcinomas) | > 10 µM | > 10 µM | > 1 µM | > 10 µM | > 10 µM | > 3 µM | > 1 µM | > 1 µM | > 10 µM | > 10 µM | > 20 µM | 0.0759 µM | > 10 µM | > 0.3 µM | 0.0392 µM | > 0.3 µM | 2.5 µM | > 1 µM | > 1 µM | > 10 µM | > 10 µM | > 10 µM | > 3 µM | > 10 µM | > 2 µM | > 1 µM | 0.833 µM | > 1 µM | > 10 µM | > 0.3 µM | 2.6 µM | 1.12 µM | > 0.001 µM | > 10 µM | > 10 µM
4 | PANC-04-03 (Pancreatic Carcinoma) | > 10 µM | > 10 µM | > 1 µM | > 10 µM | > 10 µM | > 3 µM | > 1 µM | > 1 µM | > 10 µM | > 10 µM | > 20 µM | 0.53 µM | > 10 µM | > 0.3 µM | 0.286 µM | > 0.3 µM | 7.66 µM | > 1 µM | > 1 µM | > 10 µM | > 10 µM | > 10 µM | 2.34 µM | > 10 µM | > 2 µM | > 1 µM | 4.53 µM | > 1 µM | > 10 µM | > 0.3 µM | > 3 µM | > 10 µM | > 0.001 µM | > 10 µM | > 10 µM
5 | RF-48 (B-Cell Non-Hodgkin's Lymphoma) | > 10 µM | > 10 µM | > 1 µM | > 10 µM | > 10 µM | > 3 µM | > 1 µM | 0.0247 µM | > 10 µM | > 10 µM | > 20 µM | 0.132 µM | > 10 µM | 0.0212 µM | > 1 µM | 0.0827 µM | > 10 µM | > 1 µM | > 1 µM | > 10 µM | > 10 µM | > 10 µM | 0.0199 µM | > 10 µM | > 2 µM | > 1 µM | > 5 µM | 0.424 µM | > 10 µM | > 0.3 µM | 1.45 µM | > 10 µM | > 0.001 µM | > 10 µM | > 10 µM
